Measured values taken from paper PMC5274652, “Antagonizing Retinoic Acid Receptors Increases Myeloid Cell Production by Cultured Human Hematopoietic Stem Cells” (Archivum Immunologiae et Therapiae Experimentalis, 2016).

Assays:
[1] = target: T1, human RARβ (Homo sapiens, UniProt P10826); experiment: Competition with [3H]-ATRA binding, nuclear extracts of Sf21 cells expressing RARβ; conditions: nuclear extracts of baculovirus-infected Sf21 cells, read-out: Binding affinity ED50, RARβ
T1 construct: made in house
T1 sequence (P10826 1-455): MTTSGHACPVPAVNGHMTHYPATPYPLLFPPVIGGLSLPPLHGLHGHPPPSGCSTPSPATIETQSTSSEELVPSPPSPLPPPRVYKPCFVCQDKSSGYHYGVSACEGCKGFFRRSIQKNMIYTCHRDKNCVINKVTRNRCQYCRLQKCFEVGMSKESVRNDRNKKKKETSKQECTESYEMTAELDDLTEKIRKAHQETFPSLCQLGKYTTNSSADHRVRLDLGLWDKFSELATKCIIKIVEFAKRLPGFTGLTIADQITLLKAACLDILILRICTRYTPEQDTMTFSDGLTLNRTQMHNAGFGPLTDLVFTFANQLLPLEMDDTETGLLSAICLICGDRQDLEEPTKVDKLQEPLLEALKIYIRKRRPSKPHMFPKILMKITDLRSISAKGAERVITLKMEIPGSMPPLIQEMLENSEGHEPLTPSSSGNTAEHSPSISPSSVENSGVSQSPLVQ

[2] = tested on: KG1 cells; experiment: Differentiation of KG1 cells (CD11b/CD14 flow cytometry); assay type: cell-based, human; conditions: 96 h
Experimental: NB-4 and KG1 cells were obtained from the German Resource Center for Biological Material (DSMZ GmbH, Braunschweig, Germany). The cells were grown in RPMI-1640 medium supplemented with 10 % fetal bovine serum (FBS), 100 U/ml penicillin, and 100 µg/ml streptomycin (Sigma, St Louis, MO, USA). Cells were grown at 37 °C in 5 % CO2.
The expression of differentiation markers at the cell surface was determined by flow cytometry. Differentiation of NB-4 and KG1 cells was measured by staining using the monoclonal antibodies CD11b-FITC and CD14-PE and appropriately labeled isotype controls (all from ImmunoTools, Friesoythe, Germany). Differentiation of human CD34^+ve cells was measured by triple-color staining using various cocktails of phycoerythrin-, fluorescein isothyocyanate-, and PerCP-monoclonal antibodies (from Becton–Dickinson, San Jose, CA, USA). The markers used to identify cell populations were as follows: CD45^+ve leukocytes; CD34^+ve/CD133^+ve HSCs; CD33^+ve/CD13^+ve immature myeloid; CD117^+ve myeloblasts and promyelocytes; CD11b^+ve/CD15^+ve mature myeloid; CD11b^+ve/CD65^+ve neutrophils; CD11b^+ve/CD14^+ve monocytes; glycophorin^+ve A erythroid cells; CD61^+ve megakaryoblasts and platelets; CD2^+ve/CD5^+ve/CD7^+ve T cells and NK cells; CD56^+ve NK cells; CD19^+ve/CD20^+ve B cells; and CD10^+ve B lymphocyte progenitors; and present on mature neutrophils and DR^+ve progenitors and present on mature monocytes. The cells were stained with 1 µl of the fluorescently labeled antibody (or the appropriate control immunoglobulin) for 1 h on ice. Next, they were washed with ice-cold phosphate-buffered saline (PBS) and suspended in 0.5 ml PBS supplemented with 0.1 % bovine serum albumin (Sigma, St Louis, MO, USA) prior to analysis on FACS Calibur flow cytometer (Becton–Dickinson, San Jose, CA, USA). The acquisition parameters were set for an isotype control. Cells were analyzed using a FACSCalibur, and data analysis was performed using the CellQuest Pro software (Becton–Dickinson, San Jose, CA, USA).

[3] = tested on: lineage^−ve/CD133^+ve/CD34^+vehuHSC; experiment: Ex vivo expansion of lineage-ve/CD133+ve/CD34+ve huHSC; assay type: cell-based, human
Text: The cells used were CD34^+ve cells purified from the blood of normal human adult donors and post-mobilization of stem cells to the blood. Cells obtained and purified in this manner are used routinely by the National Blood Service Stem Cell Laboratory in Birmingham for bone marrow transplantation. Ethics approval for the use of adult human blood-mobilized stem cells (CD34^+vehuHSC) was from the West Midlands Research Ethics Committee. Informed consent was obtained by the regional National Blood Service Stem Cell Laboratory in Birmingham. CD34^+ve cells were purified to 99 % CD34^+ve, 97 % CD133^+ve, >99 % lineage^−ve (n = 15) using an anti-CD34 monoclonal antibody, immunomagnetic beads, and a CliniMACS magnetic separator. Purified cells were plated at 5 × 10^5 cells/ml in microtiter wells in 200 μl of either RPMI-1640 medium (R and D Systems, Abingdon, UK) or HPGM^TM hematopoietic growth medium (Lonza, UK) containing either 10 % FBS or 10 % human serum, antibiotics (100 U/ml penicillin and 100 μg/ml streptomycin) and stem cell factor (SCF), interleukin (IL)-3, and granulocyte-colony stimulating factor (G-CSF) (all from R and D Systems Abingdon, UK) as stated in the results. Cultures were fed every 2–3 days (with fresh compound), split into microtiter wells, and then expanded into 2 ml Costar wells to maintain a cell density of between 2.5 and 10 × 10^5 cells/ml. Cells were grown at 37 °C in 5 % CO2. […]
The expression of differentiation markers at the cell surface was determined by flow cytometry. Differentiation of NB-4 and KG1 cells was measured by staining using the monoclonal antibodies CD11b-FITC and CD14-PE and appropriately labeled isotype controls (all from ImmunoTools, Friesoythe, Germany). Differentiation of human CD34^+ve cells was measured by triple-color staining using various cocktails of phycoerythrin-, fluorescein isothyocyanate-, and PerCP-monoclonal antibodies (from Becton–Dickinson, San Jose, CA, USA). […] Cells were analyzed using a FACSCalibur, and data analysis was performed using the CellQuest Pro software (Becton–Dickinson, San Jose, CA, USA).

[4] = target: T2, human RARα (Homo sapiens, UniProt P10276); experiment: Competition with [3H]-ATRA binding, nuclear extracts of Sf21 cells expressing RARα; conditions: nuclear extracts of baculovirus-infected Sf21 cells, read-out: Binding affinity ED50, RARα
T2 construct: made in house
T2 sequence (P10276 1-462): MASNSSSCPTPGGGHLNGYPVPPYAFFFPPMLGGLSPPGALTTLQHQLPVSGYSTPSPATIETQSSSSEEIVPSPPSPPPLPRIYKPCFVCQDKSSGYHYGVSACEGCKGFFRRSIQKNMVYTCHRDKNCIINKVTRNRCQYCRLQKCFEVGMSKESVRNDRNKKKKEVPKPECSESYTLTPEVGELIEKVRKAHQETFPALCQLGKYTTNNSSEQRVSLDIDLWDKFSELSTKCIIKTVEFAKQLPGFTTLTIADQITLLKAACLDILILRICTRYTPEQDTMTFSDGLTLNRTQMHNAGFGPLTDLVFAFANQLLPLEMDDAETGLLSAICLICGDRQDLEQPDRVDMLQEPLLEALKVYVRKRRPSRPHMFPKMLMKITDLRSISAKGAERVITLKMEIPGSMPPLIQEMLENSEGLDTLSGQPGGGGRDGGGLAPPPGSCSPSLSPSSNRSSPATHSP

## CCc1ccc(C2=CC(C)(C)Sc3ccc(C#Cc4ccc(C(=O)O)cc4)cc32)cc1 [AGN194310]
[1]
  IC50: 5 nM
[2]; 100 nM together with 10 nM 1,25D
  effect on differentiation of KG1 cells: no effect
[2]; 100 nM, used alone
  effect on differentiation of KG1 cells: no effect
[3]; 100 nM, day 30, HPGM, 10 % human serum, 100 ng/ml SCF, mean of seven donors, control ~eightfold
  level of expansion of lineage−ve/CD133+ve/CD34+ve huHSC: ~ 18 fold
[3]; all 15 donors, control 8–10-fold
  expansion of lineage−ve/CD133+ve/CD34+ve cells: around 20 fold
[4]
  IC50: 4.3 nM
